# Reference: patent US9567371B2, “Short beta-defensin-derived peptides” (Yeda Research and Development Co. Ltd., priority 2009, dated 2017)
# Peptide text beside a SMILES is read from it.
# Assays:
# [1] = system: MG-63 cells; test: SDF-1, bFGF and HGF secretion by stromal cells (ELISA of supernatants); format: cell-based, human; settings: 10 μM, compared with untreated cells
# Procedure: FIGS. 7A-7F. Effect of TL-1, AK-1 and cyclic TL-1 on SDF-1, bFGF and HGF secretion by different stromal cell lines. MS-5, MBA-15 and MG-63 cells were co-cultured with 10 μM TL-1, AK-1 or cyclic TL-1 in the serum free medium for 6 hrs, or without added peptide (UT). Levels of SDF-1 (A-C), bFGF (D) and HGF (E, F) were detected in the collected supernatants by ELISA. Data shown are the mean±SD of 2 separate experiments. *P<0.05 compared to control.
# SDF-1 levels in tested samples were determined by ELISA as described (Kalinkovich, A., et al., 2006) where the K15C monoclonal antibodies (mAb, INRA, Paris, France) recognizing the first three amino acids of SDF-1 were utilized as a capture Ab (10 μg/mL) in order to measure levels of intact, non-cleaved SDF-1. Levels of basic FGF (bFGF) and HGF in tested samples were determined by using corresponding capture mAbs and polyclonal biotynilated Abs (R&D Systems) as recommended by the manufacturer. In order to examine SDF-1, bFGF and HGF levels in cell supernatants, MS-5, MBA-15 and MG-63 cells were seeded in 24-well Costar wells and cultivated in RPMI 1640 or αMEM Eagle medium, respectively, with 10% FCS. […]
# In order to examine the capability of the peptides to induce secretion of other proteins, the levels of Hepatocyte growth factor (HGF) and Basic fibroblast growth factor (bFGF) were detected in the same supernatants.
# [2] = system: C57BL/6 mice; test: Mobilization assay: hematopoietic progenitor cells (CFU from PB MNC); format: in vivo, mouse
# Procedure: FIG. 3. Dose-response effect of TL-1 and AK-1 on mobilization of hematopoietic progenitor cells to peripheral blood. C57BL/6 mice were s.c. injected with 1, 5 or 10 mg/kg of TL-1 or AK-1. Control mice were injected with PBS. After 1-1.5 h, mice were sacrificed, peripheral blood mononuclear cells (PB MNC) were separated by Ficoll, seeded into the methylcellulose, and the number of colony-forming units (CFU) was estimated. Data shown are the number of CFU per 2×10^5 seeded PB MNC cells. Vertical bars represent standard deviation of duplicate experiments. *P<0.05 compared to control.
# FIG. 5. TL-1 synergizes with G-CSF to mobilize hematopoietic progenitor cells to peripheral blood. C57BL/6 mice were s.c. injected with 5 mg/kg of AMD3100 (AMD), TL-1, AK-1, TL-1+AMD3100, or AK-1+AMD3100. Other mice were injected with G-CSF, alone or with TL-1 or AMD3100. Control mice were injected with PBS. After 1-1.5 h, mice were sacrificed, peripheral blood mononuclear cells (PB MNC) were separated by Ficoll, seeded into the methylcellulose, and the number of colony-forming units (CFU) was estimated. Data shown are the number of CFU per 2×10^5 seeded PB MNC cells. Vertical bars represent standard deviation of duplicate experiments. *P<0.05 compared to control.
# C57BL/6 mice were injected s.c. with PBS (control), 5 mg/kg AMD3100, or one of the peptides TL-1, cyclic TL-1 and AK-1, at various doses. Another group of mice was s.c. injected with 5 mg/kg AMD3100 together with TL-1, or cyclic TL-1, or AK-1 (all peptides at 5 mg/kg), 1-1.5 hr before sacrifice. An additional group of mice was s.c. injected with-G-CSF at a dose of 5 μg/mouse once a day for 5 days. Mice were sacrificed 4 hrs post last G-CSF injection; 1-1.5 before sacrifice, mice were injected with TL-1, cyclic TL-1 or AK-1, all at 5 mg/kg. Peripheral blood (PB) was collected from mice by cardiac puncture into heparin containing tubes and the number of white blood cells (WBC) per 1 mL of blood was calculated. The tubes were centrifuged, plasma was collected and kept at −20° C. until tested. In order to evaluate the number of progenitor cells, PB mononuclear cells were isolated using Ficoll gradient centrifugation, and seeded (2×10^5 cells/plate) in methylcellulose with cytokines as described (Spiegel, A., et al., 2004, Goichberg, P., et al., 2006). Colonies, reflecting colony-forming units (CFU), were scored after 7 days.
# In the same experiments, blood mononuclear cells were collected and tested for the presence of colony-forming cells reflecting the number of HPC.
# [3] = system: C57BL/6 mice; test: Mobilization assay: WBC number in peripheral blood; format: in vivo, mouse
# Procedure: FIG. 2. Dose-response effect of TL-1 and AK-1 on mobilization of WBC. C57BL/6 mice were s.c. injected with 1, 5 or 10 mg/kg of TL-1 or AK-1. Control mice were injected with phosphate buffered saline (PBS). After 1-1.5 h, mice were sacrificed and WBC number in the PB was calculated. Data shown are the mean±SD of 3 separate experiments. *P<0.05 compared to control.
# FIG. 4. TL-1 synergizes with G-CSF to mobilize WBC. C57BL/6 mice were s.c. injected with G-CSF 2.5 μg/twice a day for four days. Eighteen hrs after the last injection mice were s.c. injected with 5 mg/kg of either TL-1, AK-1 or AMD3100 (AMD), sacrificed 1.5 h later, and the number of WBC was calculated. Control mice were injected with PBS or with TL-1, AK-1 or AMD3100 without pre-treatment with G-CSF. […]
# C57BL/6 mice were injected s.c. with PBS (control), 5 mg/kg AMD3100, or one of the peptides TL-1, cyclic TL-1 and AK-1, at various doses. […] Peripheral blood (PB) was collected from mice by cardiac puncture into heparin containing tubes and the number of white blood cells (WBC) per 1 mL of blood was calculated. […] Colonies, reflecting colony-forming units (CFU), were scored after 7 days.
# The cell mobilizing potential of the peptides was examined in intact C57BL/6 mice, using the protocol applied for AMD3100 (Broxmeyer, H. E., et al., 2005). First, the effect of different doses of the peptides was evaluated. […]
compound,measurement,setting,value
"N=C(N)NCCC[C@@H]1NC(=O)CNC(=O)[C@H](CCCNC(=N)N)NC(=O)[C@H](CCCCN)NC(=O)[C@H](CCCCN)NC(=O)[C@H](CCCNC(=N)N)NC(=O)[C@H](CCCNC(=N)N)NC(=O)[C@H](CS)NC(=O)[C@H](CS)NC(=O)[C@H](CCCCN)NC1=O [cyclic TL-1, 1,10-cyclo[RGRKCCRRKK]] (cyclo(CCRRKKRGRK))",levels of SDF-1 in supernatants,[1],ineffective
same,HPC mobilization (colony-forming cells),[2]; 1 mg/kg s.c.,did not induce mobilization of HPC
same,HPC mobilization in combination with AMD3100,[2]; 5 mg/kg each,inhibited AMD3100-induced mobilization
same,"HPC mobilization, peptide alone in the comparison/combination experiments",[2]; 5 mg/kg s.c.,inhibitory effect
same,HPC mobilization (colony-forming cells),"[2]; 5 mg/kg s.c., dose response experiments",did not induce mobilization of HPC
same,HPC mobilization (colony-forming cells),[2]; 10 mg/kg s.c.,inhibitory effect
same,WBC mobilization upon simultaneous injection with AMD3100,[3]; 5 mg/kg s.c. each,decreased its mobilizing capacity
same,"WBC mobilization, dose response","[3]; all tested doses: 1, 5 and 10 mg/kg s.c.",did not induce WBC mobilization
